Tests used:
[1] = Inhibition of LPA-induced intracellular Ca2+ concentration increase (FLIPR); type: cell-based; conditions: LPA final concentration 5 μM; rat hepatic stellate cell derived myofibroblast like clone; Fluo-3, FLIPR
Text: (1) Establishment of Myofibroblast Like Cell Strain Derived from Rat Hepatic Stellate Cell Fraction A stellate cell fraction was obtained from the liver of male Wistar rat according to a conventional method (European J. Biochem., 1993, vol. 213, p. 815). After subculture for several generations, the cell was cloned by limiting dilution. Well grown 24 clones that formed colonies were isolated. These clones were stained with αSMA antibody and confirmed to be all positive and to have Myofibroblast like properties. […] (2) Measurement of Cell Activation (Intracellular Ca^2+ Concentration Increasing Action)-Inhibitory Activity The above-mentioned cells were cultured overnight in a 384 well plate at 24,000 cells/well and the medium was removed. An assay buffer (0.1% BSA, 20 mM HEPES, 1×HBSS, 2.5 mM Probenecid) containing 4 μM of Fluo-3, AM (Biotium) was added, and the cells were stained at 37° C. for 1 hour. Following the buffer containing the dye reagent was removed, and an assay buffer was added, intracellular Ca^2+ concentration was measured with FLIPR (Molecular Devices). Adding a test substance and LPA at the final concentration of 5 μM, the inhibitory action of the test substance on the increase in the intracellular Ca^2+ concentration by LPA was examined. The increase in the intracellular Ca^2+ concentration by LPA addition without test substance was taken as 100%, that without the addition of LPA was taken as 0%, and the substrate's concentration (IC50) at inhibiting increase in the intracellular Ca^2+ concentration by 50% was determined.

[2] = target: EDG2 (Homo sapiens, UniProt Q92633); conditions: as described in WO01/060819; cited from earlier work
Sequence of EDG2 (Q92633 whole entry): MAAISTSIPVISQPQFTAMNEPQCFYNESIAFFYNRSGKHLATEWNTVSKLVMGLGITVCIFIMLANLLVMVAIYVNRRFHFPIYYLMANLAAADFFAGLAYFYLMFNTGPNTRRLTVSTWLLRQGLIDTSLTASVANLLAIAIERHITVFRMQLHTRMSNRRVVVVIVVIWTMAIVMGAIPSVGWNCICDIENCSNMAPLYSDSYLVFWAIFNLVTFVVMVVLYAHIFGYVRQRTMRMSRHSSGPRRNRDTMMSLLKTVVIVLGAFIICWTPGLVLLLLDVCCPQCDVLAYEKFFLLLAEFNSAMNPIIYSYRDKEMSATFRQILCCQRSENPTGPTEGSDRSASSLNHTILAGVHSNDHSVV

[3] = system: peripheral circulation disorder model induced by lactic acid; conditions: animal model of peripheral arterial obstruction; as described in WO01/060819; cited from earlier work

For COC(=O)CCSCc1ccc(-c2onc(C)c2NC(=O)OC(C)c2ccccc2Cl)cc1 (stereo not drawn) [Example 115, methyl 3-([4-[4-([[1-(2-chlorophenyl)ethoxy]carbonyl]amino)-3-methyl-5-isoxazolyl]benzyl]-sulfanyl)propanoate], the IC50 [1] is given as 836 nM, the EDG2 antagonistic action [2] is given as “strong EDG2 antagonistic action” and the “action in peripheral circulation disorder model induced by lactic acid” value [3] is given as “improving action”.

Source: patent publication US7517996B2, “Azole compound” (Ajinomoto Co., Inc., priority 2003, dated 2009)
